This note sets out measurements from patent US5932554A (priority 1997, dated 1999).

The term IC50 denotes the concentration that inhibits the measured activity by half. A low value points to greater potency.

For the assay, the target named is cholera toxin (Vibrio cholerae serotype O1, UniProt P01556). Kind of assay: biochemical. It is filed as binding, V. cholerae.
Sequence of cholera toxin (P01556 22-124 limits assumed): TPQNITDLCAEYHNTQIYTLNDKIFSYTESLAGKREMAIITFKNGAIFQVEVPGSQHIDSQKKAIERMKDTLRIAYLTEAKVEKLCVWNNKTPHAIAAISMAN

`OC[C@H]1OC(O)[C@H](O)[C@@H](O)[C@H]1O` (stereo partly drawn) [D-galactose]: half-maximal inhibition (IC50) was put at 30 mM.
